Data set [1] deals with T1, human norepinephrine transporter (Homo sapiens, UniProt P23975).
T1 construct: host or cells: HEK-293
The experiment in a line: hNET receptor binding ([125I]-RTI-55 radioligand binding). The settings on record: membranes of HEK-293 cells transfected with human norepinephrine transporter, IC50 converted to Ki by Cheng-Prusoff, read-out: hNET (Ki). The method in brief: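 Membranes from HEK-293 cells transfected with human NET. Nonspecific binding defined with 10 μM desipramine, duplicates. IC50 by nonlinear regression, converted to Ki with Cheng-Prusoff.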

In data set [2] the target is T2, human seritonin transporter (Homo sapiens, UniProt P31645).
T2 construct: host or cells: HEK-293
T2 sequence (P31645 whole entry): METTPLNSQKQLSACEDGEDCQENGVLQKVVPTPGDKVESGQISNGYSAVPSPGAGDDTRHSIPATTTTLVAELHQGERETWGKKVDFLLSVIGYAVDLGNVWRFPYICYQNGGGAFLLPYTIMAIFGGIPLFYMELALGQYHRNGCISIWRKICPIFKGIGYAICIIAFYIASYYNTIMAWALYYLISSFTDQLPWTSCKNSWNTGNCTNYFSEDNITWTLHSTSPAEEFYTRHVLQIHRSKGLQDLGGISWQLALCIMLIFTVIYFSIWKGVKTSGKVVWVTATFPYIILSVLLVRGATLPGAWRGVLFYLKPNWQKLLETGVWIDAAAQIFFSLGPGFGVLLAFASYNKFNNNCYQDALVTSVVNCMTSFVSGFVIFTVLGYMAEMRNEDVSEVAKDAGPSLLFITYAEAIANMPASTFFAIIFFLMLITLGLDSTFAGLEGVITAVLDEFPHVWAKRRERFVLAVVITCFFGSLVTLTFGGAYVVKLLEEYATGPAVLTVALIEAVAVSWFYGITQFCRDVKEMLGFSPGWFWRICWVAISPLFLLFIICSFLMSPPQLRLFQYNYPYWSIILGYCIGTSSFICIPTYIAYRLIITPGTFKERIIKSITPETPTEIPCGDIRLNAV
The experiment in a line: hSERT receptor binding ([125I]-RTI-55 radioligand binding). The settings on record: membranes of HEK-293 cells transfected with human seritonin transporter, IC50 converted to Ki by Cheng-Prusoff, read-out: SERT (Ki).

T1 sequence (P23975 whole entry): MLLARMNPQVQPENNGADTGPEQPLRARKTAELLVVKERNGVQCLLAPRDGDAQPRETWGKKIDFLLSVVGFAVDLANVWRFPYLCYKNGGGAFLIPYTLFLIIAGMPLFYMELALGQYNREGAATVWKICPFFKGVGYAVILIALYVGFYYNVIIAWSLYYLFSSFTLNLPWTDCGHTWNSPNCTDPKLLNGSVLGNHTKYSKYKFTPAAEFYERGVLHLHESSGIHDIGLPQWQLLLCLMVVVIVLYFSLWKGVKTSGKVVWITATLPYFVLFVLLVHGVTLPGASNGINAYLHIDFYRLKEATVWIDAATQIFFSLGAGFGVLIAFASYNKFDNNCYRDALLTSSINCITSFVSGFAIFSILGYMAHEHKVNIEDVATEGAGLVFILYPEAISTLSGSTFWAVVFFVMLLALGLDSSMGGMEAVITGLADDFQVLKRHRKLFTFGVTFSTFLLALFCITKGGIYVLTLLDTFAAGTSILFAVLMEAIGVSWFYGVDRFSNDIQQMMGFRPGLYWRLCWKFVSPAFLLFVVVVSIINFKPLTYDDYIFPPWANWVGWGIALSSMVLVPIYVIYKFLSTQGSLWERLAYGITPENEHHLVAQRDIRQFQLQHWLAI

By Ki is commonly meant a dissociation constant, usually derived from enzyme kinetics or from competition with a known ligand. In general, melting point refers to the temperature of the solid-liquid transition. `Oc1ccccc1O[C@@H](c1ccccc1)[C@@H]1CNCCO1` [Example 50, (2S,3S)-2-(Morpholin-2-yl-phenyl-methoxy)-phenol] showed a melting point of 156 to 158 °C. For the same molecule, the Ki in data set [1] stood at 0.0052 µM. The Ki in data set [2] worked out at 6.26 µM.
As for `COc1cccc([C@H](Oc2c(F)cccc2Br)[C@@H]2CNCCO2)n1` [Example 185, (2S)-2-[(S)-(2-bromo-6-fluorophenoxy)(6-methoxypyridin-2-yl)methyl]morpholine], the values for the Ki in data set [1] and in data set [2] were 0.008 µM and 0.201 µM, respectively.
As for `Fc1cccc(Br)c1O[C@@H](c1ccccn1)[C@@H]1CNCCO1` [Example 186, (2S)-2-[(S)-(2-bromo-6-fluorophenoxy)(pyridin-2-yl)methyl]morpholine], the results for the Ki in data set [1] and in data set [2] were 0.008 µM and 1.26 µM, respectively.
Taken in the same sequence, the figures for `COc1cccc([C@H](Oc2ccccc2Br)[C@@H]2CNCCO2)n1` [Example 187, (2S)-2-[(S)-(2-bromophenoxy)(6-methoxypyridin-2-yl)methyl]morpholine] were 0.015 µM and 0.224 µM.
As to `COc1cccc([C@H](Oc2c(F)cccc2OC)[C@@H]2CNCCO2)n1` [Example 188, (2S)-2-[(S)-(2-fluoro-6-methoxyphenoxy) (6-methoxypyridin-2-yl)methyl]morpholine], the results for the inhibitory constant (Ki) in data set [1] and in data set [2] were 0.014 µM and 2.21 µM, respectively.
For the molecule `CCOc1ncccc1OC(C(C)C)[C@@H]1CNCCO1` (stereo partly drawn) [Example 189, (2S)-2-{1-[(2-ethoxypyridin-3-yl)oxy]-2-methylpropyl}morpholine], the inhibition constant (Ki) in data set [1] is 0.147 µM; in data set [2], 5.22 µM.
For `Cc1coc(C(Oc2ccccc2C2CC2)[C@@H]2CNCCO2)n1` (stereo partly drawn) [Example 190, (2S)-2-[(2-cyclopropylphenoxy)(4-methyl-1,3-oxazol-2-yl)methyl]morpholine], the Ki was found to be 0.006 µM in data set [1] and 4.34 µM in data set [2].
`CCC[C@H](Oc1cccnc1OCC)[C@@H]1CNCCO1` [Example 191, (2S)-2-{(1S)-1-[(2-ethoxypyridin-3-yl)oxy]butyl}morpholine]: the Ki in data set [1] came out at 0.006 µM; in data set [2] it was 5.83 µM.
For the molecule `c1ccc([C@H](Oc2cccnc2OCC2CC2)[C@@H]2CNCCO2)cc1` [Example 192, (2S)-2-[(S)-{[2-(cyclopropylmethoxy)pyridin-3-yl]oxy}(phenyl)methyl]morpholine], the figures for the Ki in data set [1] and in data set [2] were 0.038 µM and 1.88 µM, respectively.
On to `Fc1cccc(C(F)(F)F)c1O[C@@H](c1ccccc1)[C@@H]1CNCCO1` [Example 193, (2S)-2-[(S)-[2-fluoro-6-(trifluoromethyl)phenoxy](phenyl)methyl]morpholine], for which the values for the Ki in data set [1] and in data set [2] were 0.003 µM and 0.707 µM, respectively.
For the molecule `Fc1cccc(OC(F)(F)F)c1O[C@@H](c1ccccc1)[C@@H]1CNCCO1` [Example 194, (2S)-2-[(S)-[2-fluoro-6-(trifluoromethoxy)phenoxy](phenyl)methyl]morpholine], the results for the Ki in data set [1] and in data set [2] were 0.009 µM and 2.56 µM, respectively.
Taken in the same sequence, the figures for `CCOc1ncccc1O[C@@H](Cc1ccccc1)[C@@H]1CNCCO1` [Example 197, (2S)-2-{(1S)-1-[(2-ethoxypyridin-3-yl)oxy]-2-phenylethyl}morpholine] were 0.018 µM and 0.811 µM.
As for `CSc1cc(F)ccc1O[C@@H](c1ccccc1)[C@@H]1CNCCO1` [Example 198, (2S)-2-[(S)-[4-fluoro-2-(methylthio)phenoxy](phenyl)methyl]morpholine], the Ki stood at 0.03 µM in data set [1] and 0.062 µM in data set [2].
On the same counts, the results for `COc1cccc([C@H](Oc2c(F)cccc2F)[C@@H]2CNCCO2)n1` [Example 199, (2S)-2-[(S)-(2,6-difluorophenoxy)(6-methoxypyridin-2-yl)methyl]morpholine] are 0.008 µM and 2.94 µM.
For the molecule `c1cnc(OC[C@H]2CNCCO2)c(OC[C@H]2CNCCO2)n1` [Example 200, (2R,2′R)-2,2′-[pyrazine-2,3-diylbis(oxymethylene)]dimorpholine], the Ki in data set [1] was 9.55 µM; in data set [2], at least 10 µM.

For the origin of these results see US7659394B2 (Pfizer Inc, priority 2004, dated 2010).
